Laboratory results reported in PubChem BioAssay AID1963844 (Molecular Pharmacology Branch, DTP, NCI, 2024).

Tested on: 422866-222-R5-J1-PDC complex spheroid viability
Experiment: Anticancer human tumor 422866-222-R5-J1-PDC patient-derived pancreatic adenocarcinoma cell line growth inhibition [POLQ]
Conditions: for IC50: curve of first compound; for viability, T/C: stronger effect = lower value
In short: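 Three-cell-type spheroids modelling solid tumor plus stroma served as the readout system; POL inhibitors were tested individually and in combination, concentration ranges set by clinical Cmax where known.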
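Note: spheroids exposed to compounds for one week before readout.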
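Throughout, for viability, T/C: percent of DMSO vehicle wells luminescence so 100% = untreated viability.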

SMILES: CC(=O)O[C@H]1C(=O)[C@@]2(C)[C@H]([C@H](OC(=O)c3ccccc3)[C@]3(O)C[C@H](OC(=O)[C@H](O)[C@@H](NC(=O)c4ccccc4)c4ccccc4)C(C)=C1C3(C)C)[C@]1(OC(C)=O)CO[C@@H]1C[C@@H]2O + COC1C(OC(N)=O)C(O)C(Oc2ccc3c(O)c(NC(=O)c4ccc(O)c(CC=C(C)C)c4)c(=O)oc3c2C)OC1(C)C
- IC50 (second compound 0.0316 µM): > 3000 nM
- IC50 (second compound 0.1 µM): > 3000 nM
- IC50 (second compound 0.316 µM): > 3000 nM
- IC50 (second compound 1 µM): > 3000 nM
- IC50 (second compound 3.16 µM): > 3000 nM
- IC50 (second compound 10 µM): > 3000 nM
- viability, T/C (second compound 0.0316 µM, first compound 0.00949 µM): 64.8%
- viability, T/C (second compound 0.0316 µM, first compound 0.03 µM): 57.2%
- viability, T/C (second compound 0.0316 µM, first compound 0.0949 µM): 61.5%
- viability, T/C (second compound 0.0316 µM, first compound 0.3 µM): 59.5%
- viability, T/C (second compound 0.0316 µM, first compound 0.949 µM): 64.7%
- viability, T/C (second compound 0.0316 µM, first compound 3 µM): 80.4%
- viability, T/C (second compound 0.1 µM, first compound 0.00949 µM): 71.6%
- viability, T/C (second compound 0.1 µM, first compound 0.03 µM): 67.4%
- viability, T/C (second compound 0.1 µM, first compound 0.0949 µM): 66%
- viability, T/C (second compound 0.1 µM, first compound 0.3 µM): 67%
- viability, T/C (second compound 0.1 µM, first compound 0.949 µM): 69.1%
- viability, T/C (second compound 0.1 µM, first compound 3 µM): 78.8%
- viability, T/C (second compound 0.316 µM, first compound 0.00949 µM): 67%
- viability, T/C (second compound 0.316 µM, first compound 0.03 µM): 63.5%
- viability, T/C (second compound 0.316 µM, first compound 0.0949 µM): 54.6%
- viability, T/C (second compound 0.316 µM, first compound 0.3 µM): 65.1%
- viability, T/C (second compound 0.316 µM, first compound 0.949 µM): 70.7%
- viability, T/C (second compound 0.316 µM, first compound 3 µM): 84.5%
- viability, T/C (second compound 1 µM, first compound 0.00949 µM): 62.1%
- viability, T/C (second compound 1 µM, first compound 0.03 µM): 54.9%
- viability, T/C (second compound 1 µM, first compound 0.0949 µM): 61.4%
- viability, T/C (second compound 1 µM, first compound 0.3 µM): 56.3%
- viability, T/C (second compound 1 µM, first compound 0.949 µM): 59.6%
- viability, T/C (second compound 1 µM, first compound 3 µM): 81.1%
- viability, T/C (second compound 3.16 µM, first compound 0.00949 µM): 66.8%
- viability, T/C (second compound 3.16 µM, first compound 0.03 µM): 52.9%
- viability, T/C (second compound 3.16 µM, first compound 0.0949 µM): 55.3%
- viability, T/C (second compound 3.16 µM, first compound 0.3 µM): 54%
- viability, T/C (second compound 3.16 µM, first compound 0.949 µM): 75%
- viability, T/C (second compound 3.16 µM, first compound 3 µM): 86.7%
- viability, T/C (second compound 10 µM, first compound 0.00949 µM): 63.7%
- viability, T/C (second compound 10 µM, first compound 0.03 µM): 60.6%
- viability, T/C (second compound 10 µM, first compound 0.0949 µM): 60.3%
- viability, T/C (second compound 10 µM, first compound 0.3 µM): 61.5%
- viability, T/C (second compound 10 µM, first compound 0.949 µM): 72%
- viability, T/C (second compound 10 µM, first compound 3 µM): 91.9%

SMILES: CC[C@@]1(O)C(=O)OCc2c1cc1n(c2=O)Cc2cc3c(CN(C)C)c(O)ccc3nc2-1 + Cc1cccc(N(C)C(=O)C2C(O)CCN2c2nc(C)cc(C(F)(F)F)c2C#N)c1
- IC50 (second compound 0.0316 µM): 30.7 nM
- IC50 (second compound 0.1 µM): 24.1 nM
- IC50 (second compound 0.316 µM): 31.2 nM
- IC50 (second compound 1 µM): 47 nM
- IC50 (second compound 3.16 µM): 25.9 nM
- IC50 (second compound 10 µM): 31.3 nM
- viability, T/C (second compound 0.0316 µM, first compound 0.000316 µM): 104%
- viability, T/C (second compound 0.0316 µM, first compound 0.001 µM): 101%
- viability, T/C (second compound 0.0316 µM, first compound 0.00316 µM): 85.7%
- viability, T/C (second compound 0.0316 µM, first compound 0.01 µM): 75.7%
- viability, T/C (second compound 0.0316 µM, first compound 0.0316 µM): 42.5%
- viability, T/C (second compound 0.0316 µM, first compound 0.1 µM): 45.5%
- viability, T/C (second compound 0.1 µM, first compound 0.000316 µM): 105%
- viability, T/C (second compound 0.1 µM, first compound 0.001 µM): 104%
- viability, T/C (second compound 0.1 µM, first compound 0.00316 µM): 97%
- viability, T/C (second compound 0.1 µM, first compound 0.01 µM): 62.6%
- viability, T/C (second compound 0.1 µM, first compound 0.0316 µM): 46.2%
- viability, T/C (second compound 0.1 µM, first compound 0.1 µM): 44.4%
- viability, T/C (second compound 0.316 µM, first compound 0.000316 µM): 114%
- viability, T/C (second compound 0.316 µM, first compound 0.001 µM): 105%
- viability, T/C (second compound 0.316 µM, first compound 0.00316 µM): 98.2%
- viability, T/C (second compound 0.316 µM, first compound 0.01 µM): 87.5%
- viability, T/C (second compound 0.316 µM, first compound 0.0316 µM): 47.6%
- viability, T/C (second compound 0.316 µM, first compound 0.1 µM): 46.3%
- viability, T/C (second compound 1 µM, first compound 0.000316 µM): 114%
- viability, T/C (second compound 1 µM, first compound 0.001 µM): 111%
- viability, T/C (second compound 1 µM, first compound 0.00316 µM): 91%
- viability, T/C (second compound 1 µM, first compound 0.01 µM): 77.5%
- viability, T/C (second compound 1 µM, first compound 0.0316 µM): 53.5%
- viability, T/C (second compound 1 µM, first compound 0.1 µM): 41.1%
- viability, T/C (second compound 3.16 µM, first compound 0.000316 µM): 96.2%
- viability, T/C (second compound 3.16 µM, first compound 0.001 µM): 108%
- viability, T/C (second compound 3.16 µM, first compound 0.00316 µM): 98.9%
- viability, T/C (second compound 3.16 µM, first compound 0.01 µM): 80.3%
- viability, T/C (second compound 3.16 µM, first compound 0.0316 µM): 40.8%
- viability, T/C (second compound 3.16 µM, first compound 0.1 µM): 46.6%
- viability, T/C (second compound 10 µM, first compound 0.000316 µM): 82%
- viability, T/C (second compound 10 µM, first compound 0.001 µM): 106%
- viability, T/C (second compound 10 µM, first compound 0.00316 µM): 102%
- viability, T/C (second compound 10 µM, first compound 0.01 µM): 77%
- viability, T/C (second compound 10 µM, first compound 0.0316 µM): 50.7%
- viability, T/C (second compound 10 µM, first compound 0.1 µM): 48.8%
